Where a SMILES comes first, the peptide text is derived from it. Bridges are numbered along the chain shown (N, C = ends). [ ]: non-standard residue; d: D form. The star is where a group is joined. Bip = N[C@@H](Cc1ccc(-c2ccccc2)cc1)C(=O)O; Cha = N[C@@H](CC1CCCCC1)C(=O)O; Cit = NC(=O)NCCC[C@H](N)C(=O)O; Carboxymethyl = O=C(O)C*; Nle = CCCC[C@H](N)C(=O)O; Orn = NCCC[C@H](N)C(=O)O; Dab = NCC[C@H](N)C(=O)O; Dap = NC[C@H](N)C(=O)O
target: T1, human PD-1 / PD-L1-Ig binding on Jurkat cell line over-expressing human PD-1 (Jurkat-PD-1) (Homo sapiens, UniProt Q15116); assay: Jurkat-PD-1 Cell Binding High-Content Screening Assay (CBA); format: cell-based; details: Jurkat-PD-1 cells, PE-labeled PD-L1-Ig 20 nM final; read-out: Jurkat HPD1_PDL1 IC50
T1 construct: expressed in transfected cells; host or cells: Jurkat
T1 sequence (Q15116 25-288): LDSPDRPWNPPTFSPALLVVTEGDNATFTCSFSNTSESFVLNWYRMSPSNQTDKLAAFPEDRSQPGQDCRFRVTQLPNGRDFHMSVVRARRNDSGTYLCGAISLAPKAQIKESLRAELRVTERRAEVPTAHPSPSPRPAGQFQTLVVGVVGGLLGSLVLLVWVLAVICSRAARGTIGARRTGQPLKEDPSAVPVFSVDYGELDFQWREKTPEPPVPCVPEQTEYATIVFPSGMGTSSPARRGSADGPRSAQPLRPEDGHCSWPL
In short: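 Jurkat cells over-expressing human PD-1, in DMEM/10% FCS, pre-incubated with compound 2 h at 37° C. PE-labeled human PD-L1-Ig (20 nM final) added for 1 h; cells fixed in paraformaldehyde with Hoechst 33342 nuclear stain, washed, and bound fluorescence quantified by high-content imaging.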

IC50 [nM]	SMILES
22.7	CC[C@H](C)[C@@H]1NC(=O)[C@H](Cc2ccc(-c3ccccc3)cc2)NC(=O)[C@H](C(C)C)NC(=O)[C@H](Cc2c[nH]c3ccccc23)NC(=O)[C@H](CC(=O)O)NC(=O)[C@H](Cc2ccc(O)cc2)NC(=O)[C@H](CC(N)=O)NC(=O)CSC[C@@H](C(=O)N[C@@H](C)C(N)=O)NC(=O)[C@H]([C@@H](C)O)NC(=O)[C@H](C(C)C)NC(=O)[C@H](CC2CCCCC2)NC(=O)[C@H](CCCNC(=N)N)NC(=O)[C@@H](CC(C)C)NC(=O)[C@H](CCCN)NC1=O [Compound 1147] ({CH2CO}-NYDWV[Bip]I[Orn][dL]R[Cha]VTCA-NH2; thioether N-14)
51	CC[C@H](C)[C@@H]1NC(=O)[C@H](Cc2ccc(-c3ccccc3)cc2)NC(=O)[C@H](C(C)C)NC(=O)[C@H](Cc2c[nH]c3ccccc23)NC(=O)[C@H](CC(=O)O)NC(=O)[C@H](Cc2ccc(O)cc2)NC(=O)[C@H](Cc2ccccc2)NC(=O)CSC[C@@H](C(=O)N[C@@H](C)C(N)=O)NC(=O)[C@H]([C@@H](C)O)NC(=O)[C@H](C(C)C)NC(=O)[C@H](CC2CCCCC2)NC(=O)[C@H](CCCNC(=N)N)NC(=O)[C@@H](CC(C)C)NC(=O)[C@H](CCCN)NC1=O [Compound 1148] ({CH2CO}-FYDWV[Bip]I[Orn][dL]R[Cha]VTCA-NH2; thioether N-14)
64.7	CCCC[C@@H]1NC(=O)[C@H](CCCNC(=N)N)NC(=O)[C@@H](CC(C)C)NC(=O)[C@H](CCCN)NC(=O)[C@H]([C@@H](C)CC)NC(=O)[C@H](Cc2ccc(-c3ccccc3)cc2)NC(=O)[C@H](C(C)C)NC(=O)[C@H](Cc2c[nH]c3ccccc23)NC(=O)[C@H](CC(=O)O)NC(=O)[C@H](Cc2ccc(O)cc2)NC(=O)[C@H](Cc2ccccc2)NC(=O)CSC[C@@H](C(=O)N[C@@H](C)C(N)=O)NC(=O)[C@H]([C@@H](C)O)NC(=O)[C@H](C(C)C)NC1=O [Compound 1152] ({CH2CO}-FYDWV[Bip]I[Orn][dL]R[Nle]VTCA-NH2; thioether N-14)
8.9	CC(C)C[C@H]1NC(=O)[C@H](CCCN)NC(=O)[C@H](CCCNC(N)=O)NC(=O)[C@H](Cc2ccc(-c3ccccc3)cc2)NC(=O)[C@H](C(C)C)NC(=O)[C@H](Cc2c[nH]c3ccccc23)NC(=O)[C@H](CC(=O)O)NC(=O)[C@H](Cc2ccc(O)cc2)NC(=O)[C@H](CN)NC(=O)CSC[C@@H](C(=O)N[C@@H](C)C(N)=O)NC(=O)[C@H]([C@@H](C)O)NC(=O)[C@H](C(C)C)NC(=O)[C@H](CC2CCCCC2)NC(=O)[C@H](CCCNC(=N)N)NC1=O [Compound 1153] ({CH2CO}-[Dap]YDWV[Bip][Cit][Orn][dL]R[Cha]VTCA-NH2; thioether N-14)
20.7	CC(C)C[C@H]1NC(=O)[C@H](CCCN)NC(=O)[C@H](CCCNC(N)=O)NC(=O)[C@H](Cc2ccc(-c3ccccc3)cc2)NC(=O)[C@H](C(C)C)NC(=O)[C@H](Cc2c[nH]c3ccccc23)NC(=O)[C@H](CC(=O)O)NC(=O)[C@H](Cc2ccc(O)cc2)NC(=O)[C@H](Cc2ccccc2)NC(=O)CSC[C@@H](C(=O)N[C@@H](C)C(N)=O)NC(=O)[C@H]([C@@H](C)O)NC(=O)[C@H](C(C)C)NC(=O)[C@H](CC2CCCCC2)NC(=O)[C@H](CCCNC(=N)N)NC1=O [Compound 1156] ({CH2CO}-FYDWV[Bip][Cit][Orn][dL]R[Cha]VTCA-NH2; thioether N-14)
10.6	CC(C)C[C@H]1NC(=O)[C@H](CCCN)NC(=O)[C@H](CCCNC(N)=O)NC(=O)[C@H](Cc2ccc(-c3ccccc3)cc2)NC(=O)[C@H](C(C)C)NC(=O)[C@H](Cc2c[nH]c3ccccc23)NC(=O)[C@H](CC(=O)O)NC(=O)[C@H](Cc2ccc(O)cc2)NC(=O)[C@H](CN)NC(=O)CSC[C@@H](C(=O)N[C@@H](C)C(N)=O)NC(=O)[C@H]([C@@H](C)O)NC(=O)[C@H](C(C)C)NC(=O)[C@H](CC2CCCCC2)NC(=O)[C@H](CCN)NC1=O [Compound 1157]
8.1	CC[C@H](C)[C@@H]1NC(=O)[C@H](Cc2ccc(-c3ccccc3)cc2)NC(=O)[C@H](C(C)C)NC(=O)[C@H](Cc2c[nH]c3ccccc23)NC(=O)[C@H](CC(=O)O)NC(=O)[C@H](Cc2ccc(O)cc2)NC(=O)[C@H](CN)NC(=O)CSC[C@@H](C(=O)N[C@@H](C)C(N)=O)NC(=O)[C@H]([C@@H](C)O)NC(=O)[C@H](C(C)C)NC(=O)[C@H](CC2CCCCC2)NC(=O)[C@H](CCN)NC(=O)[C@@H](CC(C)C)NC(=O)[C@H](CCCN)NC1=O [Compound 1159]

More lines, now with the values behind:

SMILES	IC50 [nM]
CCCC[C@@H]1NC(=O)[C@H](CCCNC(=N)N)NC(=O)[C@@H](CC(C)C)NC(=O)[C@H](CCCN)NC(=O)[C@H]([C@@H](C)CC)NC(=O)[C@H](Cc2ccc(-c3ccccc3)cc2)NC(=O)[C@H](C(C)C)NC(=O)[C@H](Cc2c[nH]c3ccccc23)NC(=O)[C@H](CC(=O)O)NC(=O)[C@H](Cc2ccc(O)cc2)NC(=O)[C@H](CN)NC(=O)CSC[C@@H](C(=O)N[C@@H](C)C(N)=O)NC(=O)[C@H]([C@@H](C)O)NC(=O)[C@H](C(C)C)NC1=O [Compound 1149] ({CH2CO}-[Dap]YDWV[Bip]I[Orn][dL]R[Nle]VTCA-NH2; thioether N-14)	47
CCCC[C@@H]1NC(=O)[C@H](CCCNC(=N)N)NC(=O)[C@@H](CC(C)C)NC(=O)[C@H](CCCN)NC(=O)[C@H]([C@@H](C)CC)NC(=O)[C@H](Cc2ccc(-c3ccccc3)cc2)NC(=O)[C@H](C(C)C)NC(=O)[C@H](Cc2c[nH]c3ccccc23)NC(=O)[C@H](CC(=O)O)NC(=O)[C@H](Cc2ccc(O)cc2)NC(=O)[C@H](Cc2ccc(OCC(=O)O)cc2)NC(=O)CSC[C@@H](C(=O)N[C@@H](C)C(N)=O)NC(=O)[C@H]([C@@H](C)O)NC(=O)[C@H](C(C)C)NC1=O [Compound 1150] ({CH2CO}-Y(Carboxymethyl)YDWV[Bip]I[Orn][dL]R[Nle]VTCA-NH2; thioether N-14)	48.9
CCCC[C@@H]1NC(=O)[C@H](CCCNC(=N)N)NC(=O)[C@@H](CC(C)C)NC(=O)[C@H](CCCN)NC(=O)[C@H]([C@@H](C)CC)NC(=O)[C@H](Cc2ccc(-c3ccccc3)cc2)NC(=O)[C@H](C(C)C)NC(=O)[C@H](Cc2c[nH]c3ccccc23)NC(=O)[C@H](CC(=O)O)NC(=O)[C@H](Cc2ccc(O)cc2)NC(=O)[C@H](CC(N)=O)NC(=O)CSC[C@@H](C(=O)N[C@@H](C)C(N)=O)NC(=O)[C@H]([C@@H](C)O)NC(=O)[C@H](C(C)C)NC1=O [Compound 1151] ({CH2CO}-NYDWV[Bip]I[Orn][dL]R[Nle]VTCA-NH2; thioether N-14)	70.9
CC(C)C[C@H]1NC(=O)[C@H](CCCN)NC(=O)[C@H](CCCNC(N)=O)NC(=O)[C@H](Cc2ccc(-c3ccccc3)cc2)NC(=O)[C@H](C(C)C)NC(=O)[C@H](Cc2c[nH]c3ccccc23)NC(=O)[C@H](CC(=O)O)NC(=O)[C@H](Cc2ccc(O)cc2)NC(=O)[C@H](Cc2ccc(OCC(=O)O)cc2)NC(=O)CSC[C@@H](C(=O)N[C@@H](C)C(N)=O)NC(=O)[C@H]([C@@H](C)O)NC(=O)[C@H](C(C)C)NC(=O)[C@H](CC2CCCCC2)NC(=O)[C@H](CCCNC(=N)N)NC1=O [Compound 1154] ({CH2CO}-Y(Carboxymethyl)YDWV[Bip][Cit][Orn][dL]R[Cha]VTCA-NH2; thioether N-14)	9.2
CC(C)C[C@H]1NC(=O)[C@H](CCCN)NC(=O)[C@H](CCCNC(N)=O)NC(=O)[C@H](Cc2ccc(-c3ccccc3)cc2)NC(=O)[C@H](C(C)C)NC(=O)[C@H](Cc2c[nH]c3ccccc23)NC(=O)[C@H](CC(=O)O)NC(=O)[C@H](Cc2ccc(O)cc2)NC(=O)[C@H](CC(N)=O)NC(=O)CSC[C@@H](C(=O)N[C@@H](C)C(N)=O)NC(=O)[C@H]([C@@H](C)O)NC(=O)[C@H](C(C)C)NC(=O)[C@H](CC2CCCCC2)NC(=O)[C@H](CCCNC(=N)N)NC1=O [Compound 1155] ({CH2CO}-NYDWV[Bip][Cit][Orn][dL]R[Cha]VTCA-NH2; thioether N-14)	7.7
CCCC[C@@H]1NC(=O)[C@H](CCN)NC(=O)[C@@H](CC(C)C)NC(=O)[C@H](CCCN)NC(=O)[C@H](CCCNC(N)=O)NC(=O)[C@H](Cc2ccc(-c3ccccc3)cc2)NC(=O)[C@H](C(C)C)NC(=O)[C@H](Cc2c[nH]c3ccccc23)NC(=O)[C@H](CC(=O)O)NC(=O)[C@H](Cc2ccc(O)cc2)NC(=O)[C@H](CN)NC(=O)CSC[C@@H](C(=O)N[C@@H](C)C(N)=O)NC(=O)[C@H]([C@@H](C)O)NC(=O)[C@H](C(C)C)NC1=O [Compound 1158] ({CH2CO}-[Dap]YDWV[Bip][Cit][Orn][dL][Dab][Nle]VTCA-NH2; thioether N-14)	73.1
CCCC[C@@H]1NC(=O)[C@H](CCN)NC(=O)[C@@H](CC(C)C)NC(=O)[C@H](CCCN)NC(=O)[C@H]([C@@H](C)CC)NC(=O)[C@H](Cc2ccc(-c3ccccc3)cc2)NC(=O)[C@H](C(C)C)NC(=O)[C@H](Cc2c[nH]c3ccccc23)NC(=O)[C@H](CC(=O)O)NC(=O)[C@H](Cc2ccc(O)cc2)NC(=O)[C@H](CN)NC(=O)CSC[C@@H](C(=O)N[C@@H](C)C(N)=O)NC(=O)[C@H]([C@@H](C)O)NC(=O)[C@H](C(C)C)NC1=O [Compound 1160] ({CH2CO}-[Dap]YDWV[Bip]I[Orn][dL][Dab][Nle]VTCA-NH2; thioether N-14)	31.3
CC(C)C[C@H]1NC(=O)[C@H](CCCN)NC(=O)[C@H](CCCNC(N)=O)NC(=O)[C@H](Cc2ccc(-c3ccccc3)cc2)NC(=O)[C@H](C(C)C)NC(=O)[C@H](Cc2c[nH]c3ccccc23)NC(=O)[C@H](CC(=O)O)NC(=O)[C@H](Cc2ccc(O)cc2)NC(=O)[C@H](CC(N)=O)NC(=O)CSC[C@@H](C(=O)N[C@@H](C)C(N)=O)NC(=O)[C@H]([C@@H](C)O)NC(=O)[C@H](C(C)C)NC(=O)[C@H](CC2CCCCC2)NC(=O)[C@H](CCN)NC1=O [Compound 1161] ({CH2CO}-NYDWV[Bip][Cit][Orn][dL][Dab][Cha]VTCA-NH2; thioether N-14)	16.1
